Tests used:
Conditions in all cases: 48 h
[1] = test system: CU-ACC2; test: area under concentration-response curve (viability) (AUC (a.u.)); higher = less active
Method in brief: (§1)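 Library compounds were tested at 11 concentrations against three adrenocortical carcinoma cell lines in 1,536-well plates. CellTiter-Glo luminescence was read after 48 h and normalised per plate to vehicle and empty-well controls. Only inhibitory or non-responding curve classes from fitted concentration-response curves contributed AC50 and area under the curve.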

[2] = test system: NCI-H295R; test: as above
Method in brief: as §1

[3] = test system: CU-ACC1; test: as above
Method in brief: as §1

[4] = test system: CU-ACC2; test: AC50 viability; higher = less potent
Method in brief: as §1

[5] = test system: NCI-H295R; test: AC50 viability; higher = less potent
Method in brief: as §1

[6] = test system: CU-ACC1; test: AC50 viability; higher = less potent
Method in brief: as §1

SMILES | area under concentration-response curve [1] | area under concentration-response curve [2] | area under concentration-response curve [3] | AC50 viability [4] [µM] | AC50 viability [5] [µM] | AC50 viability [6] [µM]
COc1cc(N2CCC(N3CCN(C)CC3)CC2)ccc1Nc1ncc(Cl)c(Nc2ccccc2P(C)(C)=O)n1 | 398 | 409 | 383 | 1.32 | 2.63 | 2.09
COCCn1c2c([n+](Cc3cnccn3)c1C)C(=O)c1ccccc1C2=O | 278 | 341 | 246 | 0.132 | 3.32 | 1.66
ClC/1=C(NCCN2CCOCC2)/C(=O)C3=C(C=CC=N3)C1=O | 409 | 440 | 387 | 8.33 | 5.9 | 2.35
c1ccc(CNc2nc(NCc3ccccc3)c3ccccc3n2)cc1 | 467 | 386 | 366 | 9.34 | 7.42 | 7.42
Cc1cc(F)c(C(=O)Nc2cccc(-c3nncn3C(C)C)n2)cc1-n1cnc(C2CC2)c1 | 360 | 419 | 427 | 11.8 | 18.6 | 18.6
COc1cc2c(NC3CCN(CC4CCCCC4)CC3)nc(N3CCCN(C(C)C)CC3)nc2cc1OCCCN1CCCCC1 | 485 | 449 | 426 | 10.5 | 16.6 | 20.9
O=C(CCCCCCNC(=O)c1cnc(N(c2ccccc2)c2ccccc2)nc1)NO | 552 | 525 | 364 | 11.8 | 20.9 | 18.6
CCCCNc1ncc2c(-c3ccc(CN4CCN(C)CC4)cc3)cn([C@H]3CC[C@H](O)CC3)c2n1 | 544 | 481 | 476 | 7.42 | 10.5 | 16.6
COCCN1CCN(Cc2ccc(-c3n[nH]c4c3C(=O)c3c(NC(=O)NN5CCOCC5)cccc3-4)cc2)CC1 | 295 | 372 | 301 | 0.148 | 0.833 | 0.468
CC(C)C[C@@H](C=O)NC(=O)[C@H](CC(C)C)NC(=O)[C@H](CC(C)C)NC(=O)OCc1ccccc1 | 409 | 407 | 374 | 0.934 | 0.742 | 1.48
CS[C@H]1SC[C@@H]2C(=O)N(C)[C@H](C(C)C)C(=O)OC[C@H](NC(=O)c3cnc4ccccc4n3)C(=O)N[C@H](C)C(=O)N(C)[C@H]1C(=O)N(C)[C@H](C(C)C)C(=O)OC[C@H](NC(=O)c1cnc3ccccc3n1)C(=O)N[C@H](C)C(=O)N2C | 235 | 320 | 152 | 0.0209 | 0.0833 | 0.00934
CN(c1ncccc1CNc1nc(Nc2ccc3c(c2)CC(=O)N3)ncc1C(F)(F)F)[S+](C)(=O)[O-] | 422 | 430 | 404 | 6.61 | 14.8 | 13.2
C[C@@]12C(=O)OC(=O)[C@]1(C)[C@H]1CC[C@@H]2O1 | 431 | 434 | 442 | 10.5 | 4.68 | 7.42
O=C(/C=C\n1cnc(-c2cc(C(F)(F)F)cc(C(F)(F)F)c2)n1)NNc1cnccn1 | 489 | 469 | 319 | 11.8 | 13.2 | 20.9
Cc1cc(OCCCc2c3n(c4c(-c5c(C)nn(C)c5C)c(Cl)ccc24)[C@H](C)CN(c2cn(C)c4ccc(C(=O)O)cc24)C3=O)cc(C)c1Cl | 570 | 445 | 367 | 16.6 | 2.95 | 16.6
Cc1cc(O[C@@H](CCC(F)(F)F)c2ccc(C(=O)NCCC(=O)O)cc2)cc(C)c1-c1ccc(C(C)(C)C)cc1 | 409 | 384 | 382 | 23.5 | 11.8 | 18.6
CC(C)C1=N[N](C\2=C1C(=O)N\C(=N2)CC3=CC=C(OCCO)C=C3)C4=C(Cl)C=CC=C4Cl | 183 | 289 | 241 | 0.0209 | 0.0833 | 0.0332
CC[C@@]1(O)C[C@H](O[C@H]2C[C@H](N(C)C)[C@H](O[C@H]3C[C@H](O)[C@H](O[C@H]4CCC(=O)[C@H](C)O4)[C@H](C)O3)[C@H](C)O2)c2c(cc3c(c2O)C(=O)c2c(O)cccc2C3=O)[C@H]1C(=O)OC | 533 | 523 | 453 | 16.6 | 16.6 | 23.5
Nc1ccc(C(=O)c2cc3c(ccc4ccccc43)[nH]2)cc1 | 471 | 419 | 466 | 38.2 | 12.1 | 6.05
c1cc(-c2cnn3cc(-c4ccc(OCCN5CCCCC5)cc4)cnc23)ccn1 | 456 | 450 | 404 | 9.34 | 10.5 | 11.8
Cc1c(CN2CCN([S+](C)(=O)[O-])CC2)sc2c(N3CCOCC3)nc(-c3cnc(N)nc3)nc12 | 403 | 333 | 282 | 0.468 | 1.18 | 0.525
COc1cc(N2CCC(N)CC2)ccc1Nc1ncc(Cl)c(-c2c[nH]c3ccccc23)n1 | 357 | 318 | 386 | 5.9 | 1.18 | 9.34
Cc1cnc(Nc2ccc(OCCN3CCCC3)cc2)nc1Nc1cccc([S+](=O)([O-])NC(C)(C)C)c1 | 547 | 501 | 491 | 8.33 | 8.33 | 16.6
COc1cccc2c1C(=O)c1c(O)c3c(c(O)c1C2=O)C[C@@](O)(/C(CO)=N/NC(=O)CCCCCN1C(=O)C=CC1=O)C[C@@H]3O[C@H]1C[C@H](N)[C@H](O)[C@H](C)O1 | 539 | 492 | 356 | 18.6 | 18.6 | 20.9
CC(C)(O)CNc1ncc(-c2ccnc(Nc3ccncc3)n2)c(CC2CC2)n1 | 485 | 487 | 442 | 20.9 | 18.6 | 10.5

SMILES | area under concentration-response curve [1] | area under concentration-response curve [2] | area under concentration-response curve [3] | AC50 viability [4] [µM] | AC50 viability [5] [µM] | AC50 viability [6] [µM]
CCN1CCN(Cc2ccc(Nc3ncc(F)c(-c4cc(F)c5nc(C)n(C(C)C)c5c4)n3)nc2)CC1 | 362 | 480 | 463 | 8.33 | 18.6 | 18.6
CC[C@@]1(O)C(=O)OC\C2=C1\C=C\3N(CC4=C3N=C5C=CC=CC5=C4)C2=O | 424 | 443 | 363 | 0.742 | 1.48 | 1.66
COc1nc(OCc2cccc(-c3ccccc3)c2C)ccc1CNCCNC(C)=O | 379 | 412 | 390 | 16.6 | 5.9 | 11.8
O=C(c1ccc(Nc2nccc(-c3cc4ccccc4s3)n2)cc1)N1CCC(N2CCCC2)CC1 | 521 | 462 | 446 | 7.42 | 6.61 | 9.34
C[C@@H]1CC[C@@]2(OC1)O[C@H]3C[C@H]4[C@@H]5C/C=C6/C[C@H](CC[C@]6(C)[C@H]5CC[C@]4(C)[C@H]3[C@@H]2C)O[C@@H]7O[C@H](CO)[C@@H](O[C@@H]8O[C@@H](C)[C@H](O)[C@@H](O)[C@H]8O)[C@H](O)[C@H]7O[C@@H]9O[C@@H](C)[C@H](O)[C@@H](O)[C@H]9O | 524 | 386 | 446 | 7.42 | 1.18 | 4.68
N[S+]([O-])(=O)C1=CC=C(NC/2=C/C(=O)C3=CC=CC=C3C2=O)C=C1 | 463 | 403 | 290 | 13.2 | 2.35 | 0.59
CC[C@H]1/C=C\C=C/C[C@@H](C)[C@H](O)[C@@](C)(O)C(=O)[C@@H](C)[C@H](O)[C@@H](C)C(=O)[C@@H](C)[C@H](O)[C@@H](C)/C=C/C(=O)O[C@@H]2[C@H](C)[C@H](CC1)O[C@]1(CC[C@H](C)[C@H](C[C@@H](C)O)O1)[C@H]2C | 402 | 326 | 193 | 7.42 | 1.32 | 0.00186
CC(C)(O)CC(=O)NCCn1ccc2ncnc(Nc3ccc(Oc4cccc(C(F)(F)F)c4)c(Cl)c3)c21 | 472 | 443 | 465 | 23.5 | 20.9 | 20.9
Cc1ccc(-c2cc(C(F)(F)F)nn2-c2ccc([S+](N)(=O)[O-])cc2)cc1 | 261 | 271 | 268 | 10.5 | 9.34 | 10.5
Fc1cc(-c2cccc3ncc(-c4cnn(C5CCNCC5)c4)nc23)cc(F)c1CN1CCOCC1 | 437 | 428 | 390 | 13.2 | 8.33 | 11.8
CCN(CC)CCOC1=CC=C(NC2=NC=C3\C=C(/C(=O)N(C)C3=N2)C4=C(Cl)C=CC=C4Cl)C=C1 | 511 | 461 | 436 | 7.42 | 4.17 | 7.42
C[C@H]([C@H]1C\C(=C(CO)/C(=O)O1)C)[C@H]2CC[C@H]3[C@@H]4C[C@H]5O[C@]56[C@@H](O)\C=C/C(=O)[C@]6(C)[C@H]4CC[C@]23C | 393 | 401 | 270 | 0.468 | 1.18 | 1.48
COC(=O)C/1=C(C)/N/C(=C(\C1C2=CC(=CC=C2)[N+]([O-])=O)C(=O)OCCCN3CCC(CC3)(C4=CC=CC=C4)C5=CC=CC=C5)C (centres undefined) | 374 | 465 | 426 | 16.6 | 7.42 | 13.2
ClC1=CC\2=C(NC(=O)\C(=C2N[C@@H]3CN4CCC3CC4)C5=NC6=C([NH]5)C=CC=C6)C=C1 | 365 | 404 | 404 | 5.25 | 0.118 | 16.6
CC(C)c1ccc(Cn2ccc3c4c(N)nc(NC5CC5)nc4ccc32)cc1 | 399 | 335 | 327 | 2.95 | 2.95 | 7.42
Cc1ccc(-c2ccc3ncc4c(c3n2)n(C2CCN(C(=O)[C@H](C)O)CC2)c(=O)n4C)cn1 | 492 | 394 | 363 | 0.263 | 0.295 | 0.263
c1ccc(-c2ccc(CNc3nc(-c4ccccn4)nnc3-c3ccccc3)cc2)cc1 | 504 | 461 | 385 | 14.8 | 4.17 | 2.35
CC[S+](=O)([O-])N1CCN(c2ccc(Nc3ncc(C(N)=O)c(NC4CC4)n3)cc2)CC1 | 561 | 499 | 474 | 26.3 | 16.6 | 20.9
O=[N+]([O-])c1ccc(Nc2ccccc2-c2ccccc2)c2nonc12 | 467 | 434 | 426 | 8.33 | 8.33 | 9.34
Cc1cccc(Nc2nc(-c3ccncc3)cs2)c1 | 549 | 531 | 497 | 16.6 | 14.8 | 20.9
O=C(NC1CCNCC1)c1n[nH]cc1NC(=O)c1c(Cl)cccc1Cl | 512 | 542 | 464 | 3.32 | 16.6 | 9.34
Cc1ccc(C(=O)Nc2ccc(CN3CCN(C)CC3)c(C(F)(F)F)c2)cc1C#Cc1cnc2cccnn12 | 524 | 487 | 402 | 9.34 | 7.42 | 7.42
CC(=O)NCC(=O)N1[C@@H]2CC[C@H]1c1ccc(Nc3ncc(C(F)(F)F)c(NC4CCC4)n3)cc12 | 443 | 459 | 502 | 10.5 | 16.6 | 18.6
CCN1CCN(Cc2ccc(NC(=O)Nc3ccc(Oc4cc(NC)ncn4)cc3)cc2C(F)(F)F)CC1 | 526 | 494 | 436 | 10.5 | 11.8 | 9.34

Reference: the supplement of paper PMC10949913
